In patent US8163931B2, “Treatment of CRTH2-mediated diseases and conditions” (Oxagen Limited, priority 2003, dated 2012) one finds IC50, Ki and EC50 data, which are given here for 12 compounds.

Structures are written as SMILES.

For test [1], the target named is T1, CRTH2 (Homo sapiens, UniProt Q9Y5Y4).
T1 construct: expressed in transfected cells; host or cells: Chinese Hamster Ovary (CHO) cells, G418-selected (CHO/CRTH2)
T1 sequence (Q9Y5Y4 1-395): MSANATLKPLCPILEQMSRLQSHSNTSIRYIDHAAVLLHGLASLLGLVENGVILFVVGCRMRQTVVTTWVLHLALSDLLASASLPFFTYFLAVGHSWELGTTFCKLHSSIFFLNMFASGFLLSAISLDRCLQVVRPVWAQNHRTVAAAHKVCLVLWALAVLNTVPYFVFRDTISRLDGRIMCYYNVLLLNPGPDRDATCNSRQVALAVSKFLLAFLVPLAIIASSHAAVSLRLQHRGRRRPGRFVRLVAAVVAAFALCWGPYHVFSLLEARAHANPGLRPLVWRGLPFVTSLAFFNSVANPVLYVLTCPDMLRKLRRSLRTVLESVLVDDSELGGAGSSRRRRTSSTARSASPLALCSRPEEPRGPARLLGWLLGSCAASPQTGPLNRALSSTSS
As to the kind of experiment: Calcium mobilisation assay in CHO/CRTH2 cells (PGD2-induced calcium flux). As to conditions: for IC50: read-out: IC50, inhibition of PGD2-induced calcium flux. It counts as cell-based. How it is done: (§1) Chinese Hamster Ovary cells were transfected with CRTH2 or DP receptors (CHO/CRTH2 and CHO/DP) and were maintained in culture in a humidified atmosphere at 37° C. (5% CO2) in Minimum Essential Medium (MEM) supplemented with 10% foetal bovine serum, 2 mM glutamine, and 1 mg ml^−1 active G418. The cells were passaged every 2-3 days. For radioligand binding assay, cells were prepared in triple-layer flasks or in 175 cm^2 square flasks (for membrane preparation). For calcium mobilisation assay, cells were grown in a 96 well plate 24 h prior to the assay at a density of 80,000 cells per well.
Cells were seeded onto poly-D-lysine coated 96-well plates at a density of 80,000 cells per well and incubated at 37° C. overnight to allow the cells to adhere. Cells were washed twice with HBSS and incubated for 1 h at 37° C. in 100 μl HBSS and 100 μl calcium-3-dye (Molecular Devices), supplemented with 4 mM probenecid. Changes in fluorescence were monitored over a 50 s time course with agonist addition at 17 s using a Flexstation (Molecular Devices).
Background: Calcium flux is commonly read through the fluorescence of an indicator in the cells.

In test [2] the target is T1, CRTH2. Kind of test: [3H]PGD2 radioligand binding on CHO/CRTH2 cell membranes. To be noted: competition versus [3H]PGD2, CHO/CRTH2 membranes. Here is the method:
as §1
(§2) Membranes were prepared either from CHO/CRTH2 and CHO/DP cells, or from platelets (as a source of TP receptors). CHO cells grown to confluency were washed with PBS and detached using a Versene solution (15 ml per flask). When the cells were grown in 175 cm^2 square flask, they were collected by scrapping in PBS. The cell suspensions were centrifuged (1,700 rpm, 10 min, 4° C.) and resuspended in 15 ml of buffer (1×HBSS, supplemented with 10 mM HEPES, pH 7.3). Cell suspensions were then homogenised using an Ultra Turrax at setting 4-6 for 20 s. The homogenate was centrifuged at 1,700 rpm for 10 min and the supernatant was collected and centrifuged at 20,000 rpm for 1 h at 4° C. The resulting pellet was resuspended in buffer and stored at −80° C. in aliquots of 200-500 μl. The protein concentration was determined by the method of Bradford (1976), using bovine serum albumin as standard. The platelets were washed by centrifugation at 600×g for 10 min and resuspended in ice-cold assay buffer (10 mM Tris-HCl, pH 7.4, 5 mM Glucose, 120 mM NaCl, 10 μM indomethacin) and directly centrifuged at 20,000 rpm for 30 min at 4° C. The resulting pellet was treated as described above.
(§3) [^3H]PGD2 (160 Ci/mmol) binding experiments were performed on membranes prepared as described above. Assays were performed in a final volume of 100 μl of buffer (1×HBSS/HEPES 10 mM, pH 7.3). Cell membranes (15 μg). Cell membranes […] were preincubated at room temperature with varying concentration of competing ligand for 15 min. [^3H]PGD2 (mol, final concentration) was then added and the incubation continued for a further one hour at room temperature. The reaction was terminated by the addition of 200 μl ice-cold assay buffer to each well, followed by rapid filtration through Whatman GF/B glass fibre filters using a Unifilter Cell harvester (PerkinElmer Life Sciences) and six washes of 300 μl of ice-cold buffer. The Unifilter plates were dried at room temperature for at least 1 h and the radioactivity retained on the filters was determined on a Beta Trilux counter (PerkinElmer Life Sciences), following addition of 40 μl of Optiphase Hi-Safe 3 (Wallac) liquid scintillation. Non specific binding was defined in the presence of 10 μM unlabelled PGD2. Assays were performed in duplicate.

For the next test, the target named is T2, DP receptor (Homo sapiens, UniProt Q13258).
T2 construct: expressed in transfected cells; host or cells: Chinese Hamster Ovary (CHO) cells, G418-selected (CHO/DP)
T2 sequence (Q13258 1-359): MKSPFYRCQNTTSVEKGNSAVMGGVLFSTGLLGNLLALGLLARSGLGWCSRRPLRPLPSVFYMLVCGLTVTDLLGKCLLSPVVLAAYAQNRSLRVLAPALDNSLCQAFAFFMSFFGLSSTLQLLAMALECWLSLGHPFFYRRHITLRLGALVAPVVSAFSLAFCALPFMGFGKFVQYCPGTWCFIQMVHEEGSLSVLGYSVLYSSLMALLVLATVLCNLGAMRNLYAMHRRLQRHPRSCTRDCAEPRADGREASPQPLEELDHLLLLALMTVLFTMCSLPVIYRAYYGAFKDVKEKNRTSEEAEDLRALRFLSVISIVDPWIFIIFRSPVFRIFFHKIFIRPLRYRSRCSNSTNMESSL
As to the kind of experiment: [3H]PGD2 radioligand binding on CHO/DP cell membranes. As to conditions: competition versus [3H]PGD2, CHO/DP membranes. How it is done:
as §1, §2, §3

By IC50 is commonly meant the concentration that inhibits the measured activity by half. In the case of `Cc1c(C(C)c2nc3ccccc3s2)c2cc(F)ccc2n1CC(=O)O` (racemic) [Compound 19, (±)-3-(1-Benzothiazol-2-yl-ethyl)-5-fluoro-2-methyl-indol-1-yl]-acetic acid], at CRTH2 [1], the 50% inhibitory concentration (IC50) came out at 34 ± 7 nM.
A word on the Ki: it is a dissociation constant, usually derived from enzyme kinetics or from competition with a known ligand. As to `Cc1c(C(C)c2ccc(S(C)(=O)=O)cc2)c2cc(F)ccc2n1CC(=O)O` (stereo not shown) [Compound 4, {5-Fluoro-3-[1-(4-methanesulfonyl-phenyl)-ethyl]-2-methyl-indol-1-yl}-acetic acid], the Ki is 5 ± 4 nM on CRTH2 [2] and 30400 ± 9810 nM on DP receptor. Besides, the 50% inhibitory concentration (IC50) on CRTH2 [1] stood at 55 ± 18 nM.
On to `Cc1c(Cc2ccc3ccccc3n2)c2cc(F)ccc2n1CC(=O)O` [Compound 6, (5-Fluoro-2-methyl-3-quinolin-2-ylmethyl-indol-1-yl)-acetic acid], for which the Ki on DP receptor worked out at 17900 ± 7290 nM.
In the case of `Cc1c(Cc2ccc3ccccc3c2)c2cc(F)ccc2n1CC(=O)O` [Compound 7, (5-Fluoro-2-methyl-3-naphthalen-2-ylmethyl-indol-1-yl)-acetic acid], the IC50 on CRTH2 [1] came out at 38 ± 16 nM.
Regarding `Cc1c(Cc2ccc3cccc(O)c3n2)c2cc(F)ccc2n1CC(=O)O` [Compound 8, [5-Fluoro-3-(8-hydroxy-quinolin-2-ylmethyl)-2-methyl-indol-1-yl]-acetic acid], the Ki at CRTH2 [2] came out at 6 ± 4 nM; at DP receptor, 7710 ± 1780 nM. The IC50 on CRTH2 [1] worked out at 11 ± 6 nM.
For `COc1ccc(Cc2c(C)n(CC(=O)O)c3ccc(F)cc23)cc1` [Compound 10, [5-Fluoro-3-(4-methoxy-benzyl)-2-methyl-indol-1-yl]-acetic acid], the IC50 on CRTH2 [1] was 47 ± 8 nM.
As for `Cc1c(Cc2ccc(Cl)cc2)c2cc(F)ccc2n1CC(=O)O` [Compound 12, [3-(4-Chloro-benzyl)-5-fluoro-2-methyl-indol-1-yl]-acetic acid], the inhibition constant Ki at CRTH2 [2] is 11 ± 2 nM; on DP receptor, 12200 ± 2250 nM. Further, the IC50 at CRTH2 [1] came to 108 ± 29 nM.
For `Cc1c(Cc2nc3ccccc3s2)c2cc(F)ccc2n1CC(=O)O` [Compound 13, (3-Benzothiazol-2-ylmethyl-5-fluoro-2-methyl-indol-1-yl)-acetic acid], at CRTH2 [2], the inhibitory constant (Ki) amounted to 6 ± 1 nM.
On to `Cc1c(Cc2ccc(S(C)(=O)=O)cc2)c2cc(F)ccc2n1CC(=O)O` [Compound 17, [5-Fluoro-3-(4-methanesulfonyl-benzyl)-2-methyl-indol-1-yl]-acetic acid], for which, at CRTH2 [1], the IC50 came out at 64 ± 5 nM.
`Cc1c(Cc2ccc3cc(F)ccc3n2)c2cc(F)ccc2n1CC(=O)O` [Compound 18, [5-Fluoro-3-(6-fluoro-quinolin-2-ylmethyl)-2-methyl-indol-1-yl]-acetic acid]: the figures for the inhibitory constant (Ki) on CRTH2 [2] and on DP receptor were 1.3 ± 0.6 nM and 7740 ± 1440 nM, respectively. For the same compound, at CRTH2 [1], the half-maximal inhibitory concentration (IC50) is 10 ± 5 nM.
Regarding `O=C(O)Cn1cc(Cc2nc3c(F)c(F)cc(F)c3s2)c2ccccc21` [Compound 20, [3-(4,5,7-Trifluoro-benzothiazol-2-ylmethyl)-indol-1-yl]-acetic acid, reference compound], the inhibition constant Ki came to 886 ± 248 nM at CRTH2 [2] and 3960 nM on DP receptor. Further, the half-inhibitory concentration (IC50) at CRTH2 [1] was 885 ± 96 nM.
In general, EC50 refers to the concentration that produces a half-maximal response. As to `CCCCC[C@H](O)/C=C/[C@H]1C(=O)C[C@H](O)[C@@H]1C/C=C\CCCC(=O)O` [PGD2, prostaglandin D2, reference compound], the EC50 at CRTH2 [1] (agonist, n=3, read-out: EC50, increase in intracellular Ca2+ mobilisation) turned out to be 2.4 ± 0.5 nM.
